Reference: article PMC2734971 (Pharmaceutical research, 2009)
Where no end group is shown, it is not given here.

Key:
[1] = tested on: MDA-MB-231 tumor xenografts; experiment: In vivo MR T1-mapping of MDA-MB-231 tumor-bearing SCID mice; parameters: species or system SCID mice (human breast cancer xenograft)
kidney = experiment: T1-weighted coronal MR imaging, kidney signal; type: in vivo, SCID mice; conditions: up to 24 h; 0.03 mmol-Gd/kg i.v.; 9.4 tesla
[2] = tested on: solid tumors / αVβ3 integrins; conditions: prostate tumors; cited from earlier work

Substance | T1 at tumor site, targetable vs non-targetable, other time points ([1]; 10 min, 30 min, 1, 6, 24 h, 0.03 mmol-Gd/kg i.v.) | mean T1 value at tumor site, 2 h post-injection ([1]; 2 h after i.v. injection, 0.03 mmol-Gd/kg, 9.4 tesla, 4 mice/group, mean±SD) [ms] | signal enhancement in kidney (kidney) | enhancement of tumor accumulation vs copolymers without targeting peptide [2]
P-RGDfK-Gd: HPMA copolymer with Gd-DOTA and RGDfK side chains; Mw 43,000; 0.428 mmol/g RGDfK, 0.14 mmol/g Gd | no significant difference | 1950 ± 189.8 | signal enhancement in kidney up to 24 h | –
KACDCRGDCFCG (also: bicyclic or more (positions not given here)) [RGD4C] | – | – | – | four to fivefold enhancement
